{"source": "paper PMC13114161", "about": "(Antibiotics, 2026)", "key": {"P. aeruginosa ATCC 27853 [1]": {"test_system": "P. aeruginosa ATCC 27853", "experiment": "MIC and levofloxacin potentiation (broth microdilution)", "type": "cell-based, Pseudomonas aeruginosa", "conditions": "for MIC: Pseudomonas aeruginosa, ATCC27853"}, "P. aeruginosa ATCC 27853 [2]": {"test_system": "P. aeruginosa ATCC 27853", "experiment": "Neutropenic murine thigh infection model", "type": "in vivo, CD-1 mice", "method": "Female CD-1 mice (6–8 weeks old; 22 ± 2 g) were obtained from Envigo Laboratories, quarantined for at least 3 days, and housed 5 per cage in accordance with the approved IACUC protocol (IACUC-2017-0049). Neutropenia was induced by intraperitoneal (IP) administration of cyclophosphamide (Cytoxan) at 150 mg/kg on day 4 and 100 mg/kg on day 1 prior to infection.\nMice were infected intramuscularly (IM) in the right thigh with 0.1 mL of bacterial suspension containing approximately 1 × 10^5–10^6 CFU/mL. […] At 2 h or 24 h post-infection, mice were euthanized by CO2 asphyxiation, and thighs were aseptically excised and placed in 2 mL sterile phosphate-buffered saline (PBS) on ice. Tissue homogenization was performed using a Polytron PT10-35 (12 mm aggregate, Kinematica, Malters, Switzerland).\nPlates were incubated overnight at 37 °C, and colonies were enumerated the following day."}, "[3]": {"test_system": "multidrug-resistant P. aeruginosa clinical isolates from the CDC-FDA", "experiment": "Levofloxacin MIC potentiation, CDC-FDA isolates", "type": "cell-based, Pseudomonas aeruginosa", "conditions": "for Levofloxacin MIC fold difference, +EPI / Levofloxacin MIC, +EPI: EPI […] (TXA11114, TXA09155) or 50 μg/mL (MC-04,124, PAβN)", "method": "In a comparative study, the levofloxacin-potentiating activity of TXA11114 was evaluated alongside the well-characterized EPIs PAβN and MC-04,124 using P. aeruginosa clinical isolates obtained from the CDC and FDA Antimicrobial Resistance Isolate Bank and the Walter Reed Army Institute of Research (WRAIR). […] While PAβN has been widely studied in laboratory strains, its activity against the CDC/FDA P. aeruginosa panel has been reported only sparingly, limiting direct cross-study comparisons.\nMIC assays for potentiation of antimicrobial activity against P. aeruginosa were performed as described previously."}, "in vivo": {"experiment": "in vivo", "conditions": "female, CD-1, mouse, 30 mg/kg", "method": "The P. aeruginosa strain UNT034-1 (ATCC 27853) was used for infection studies. Female CD-1 mice (6–8 weeks old; 22 ± 2 g) were obtained from Envigo Laboratories (Indianapolis, IN, USA). All procedures were conducted in accordance with protocols approved by the University of North Texas Health Science Center (UNTHSC) Institutional Animal Care and Use Committee (protocol IACUC-2021-0003). Neutropenia was induced by intraperitoneal (i.p.) injection of cyclophosphamide (Cytoxan) at 150 mg/kg on day 4 and 100 mg/kg on day 1 before infection. Mice were anesthetized by i.p. injection of ketamine (40 mg/kg) and xylazine (6 mg/kg) and intranasally inoculated with 0.05 mL of the prepared P. aeruginosa suspension by placing droplets onto the nares and allowing inhalation. Following inoculation, mice were returned to cages for recovery. […] At predetermined time points (0.083, 0.25, 0.5, 1, 2, 4, 8, and 24 h), groups of three mice were euthanized by CO2 asphyxiation. Blood was collected by cardiac puncture into tubes containing EDTA or serum separator gel, centrifuged at 4 °C, and plasma or serum was harvested within 30 min of collection. Bronchoalveolar lavage fluid (BALF) was collected to determine drug concentrations at the site of infection. Briefly, 1.2 mL of sterile 0.9% NaCl was instilled into the lungs via the trachea and gently withdrawn. The epithelial lining fluid (ELF) dilution factor was determined by the blood urea nitrogen (BUN) method. Plasma and BALF samples were stored at −80 °C until analysis. Drug concentrations were quantified by LC-MS/MS using a Surveyor HPLC system coupled to a TSQ Quantum Ultra triple-quadrupole mass spectrometer (Thermo Scientific). Separation was achieved on a Phenomenex Kinetex PFP column (50 × 2.1 mm, 2.6 µm) with a mobile phase gradient of water (0.1% formic acid, A) and acetonitrile (0.1% formic acid, B) at 0.5 mL/min. The gradient proceeded from 10% to 90% B over 4 min, held for 1 min, and re-equilibrated to initial conditions. The column oven was maintained at 30 °C. […] Samples (50 µL plasma or BALF) were spiked with 10 µL of internal standard in methanol, precipitated with 150 µL acetonitrile, vortexed, sonicated for 10 min, and centrifuged at 14,500 rpm for 5 min. A 100 µL aliquot of the supernatant was transferred to autosampler vials, and 10 µL was injected for analysis. Concentration-time data were analyzed using noncompartmental methods (PK Solutions v2.0; Summit Research Services, Montrose, CO, USA). Parameters including area under the concentration-time curve (AUC0-t), maximum concentration (Cmax), time to Cmax (Tmax), apparent volume of distribution (Vd), systemic clearance (CL), and terminal half-life (t½) were calculated. Data are presented as means ± standard deviation (SD) for three animals per time point."}, "Aqueous solubility": {"experiment": "Aqueous solubility", "type": "physicochemical", "method": "The aqueous solubility of TXA11114 was evaluated in system solution (SS) at pH 7.4. Known concentrations of TXA11114, prepared as DMSO stock solutions, were spiked into SS and incubated for 6 h at room temperature with constant shaking (250 rpm). Caffeine and diethylstilbestrol (DES) were used as positive controls. […] Aliquots (500 µL) of diluted test and control compounds were dispensed into 96-deep-well plates in triplicate, sealed, and incubated as described above. Following incubation, 300 µL samples were withdrawn and filtered using 0.22 µm filter plates. Optical density at λ_max was measured using a UV spectrophotometer."}, "[4]": {"conditions": "+24 hr, TXA11114 30 mg/kg IV QID alone"}, "[5]": {"conditions": "combined CDC/FDA and WRAIR MDR isolate sets"}}, "note": "Read-outs that look alike come from different tables or passages of the source."}
{"smiles": "NCC(F)C[C@@H](N)CNC(=O)c1cc2ccc(-c3ccc(F)cc3)cc2[nH]1", "note": "(stereo partly drawn) [TXA11114, N-((2R)-2,5-diamino-4-fluoropentyl)-6-(4-fluorophenyl)-1H-indole-2-carboxamide]", "values": [{"measurement": "Fold MIC reduction [LVX/EPI-LVX]", "setting": "P. aeruginosa ATCC 27853 [1]; EPI at […], ATCC 27853", "value": 8, "unit": "fold"}, {"measurement": "MIC", "setting": "P. aeruginosa ATCC 27853 [1]; ATCC 27853 parent strain (Table S1), read-out: MIC", "value": 100, "unit": "mg/L"}, {"measurement": "MIC", "setting": "P. aeruginosa ATCC 27853 [1]; EPI alone, ATCC 27853, read-out: EPI MIC", "value": 100, "unit": "mg/L"}, {"measurement": "LVX MIC (+EPI)", "setting": "P. aeruginosa ATCC 27853 [1]; levofloxacin MIC with EPI at […], ATCC 27853", "value": 0.125, "unit": "mg/L"}, {"measurement": "Effect of EPI alone on bacterial burden, thigh", "setting": "P. aeruginosa ATCC 27853 [2]; 30 mg/kg, IV, QID", "value": "had no impact on bacterial burden"}, {"measurement": "Mean Log10 CFU (thigh)", "setting": "P. aeruginosa ATCC 27853 [2]; [4]", "value": 8.95, "unit": "log10 CFU"}, {"measurement": "Mean Log10 CFU Change vs +2 hr Control, Δlog10 (treatment-baseline), thigh", "setting": "P. aeruginosa ATCC 27853 [2]; [4]", "value": 2.87, "unit": "log10 CFU"}, {"measurement": "Mean Log10 CFU Change vs +24 hr Control, thigh", "setting": "P. aeruginosa ATCC 27853 [2]; TXA11114 30 mg/kg IV QID alone", "value": 0.13, "unit": "log10 CFU"}, {"measurement": "CFU reduction by combination, exceeding levofloxacin alone", "setting": "P. aeruginosa ATCC 27853 [2]; murine thigh and lung infection models", "value": "> 1", "unit": "log10 CFU"}, {"measurement": "Levofloxacin MIC fold difference, +EPI", "setting": "[3]; AR-0229", "value": 32, "unit": "fold"}, {"measurement": "Levofloxacin MIC, +EPI", "setting": "[3]; AR-0229", "value": 2, "unit": "µg/mL"}, {"measurement": "Levofloxacin MIC fold difference, +EPI", "setting": "[3]; AR-0232", "value": 16, "unit": "fold"}, {"measurement": "Levofloxacin MIC, +EPI", "setting": "[3]; AR-0232", "value": 0.5, "unit": "µg/mL"}, {"measurement": "Levofloxacin MIC fold difference, +EPI", "setting": "[3]; AR-0233", "value": 8, "unit": "fold"}, {"measurement": "Levofloxacin MIC, +EPI", "setting": "[3]; AR-0233", "value": 0.5, "unit": "µg/mL"}, {"measurement": "Levofloxacin MIC fold difference, +EPI", "setting": "[3]; AR-0234", "value": 32, "unit": "fold"}, {"measurement": "Levofloxacin MIC, +EPI", "setting": "[3]; AR-0234", "value": 0.25, "unit": "µg/mL"}, {"measurement": "Levofloxacin MIC fold difference, +EPI", "setting": "[3]; AR-0239", "value": 4, "unit": "fold"}, {"measurement": "Levofloxacin MIC, +EPI", "setting": "[3]; AR-0239", "value": 8, "unit": "µg/mL"}, {"measurement": "Levofloxacin MIC fold difference, +EPI", "setting": "[3]; AR-0242", "value": 4, "unit": "fold"}, {"measurement": "Levofloxacin MIC, +EPI", "setting": "[3]; AR-0242", "value": 2, "unit": "µg/mL"}, {"measurement": "Levofloxacin MIC fold difference, +EPI", "setting": "[3]; AR-0244", "value": "8, (8) fold"}, {"measurement": "Levofloxacin MIC, +EPI", "setting": "[3]; AR-0244", "value": "8, (8) μg/mL"}, {"measurement": "Levofloxacin MIC fold difference, +EPI", "setting": "[3]; AR-0246", "value": "8, (8) fold"}, {"measurement": "Levofloxacin MIC, +EPI", "setting": "[3]; AR-0246", "value": "8, (8) μg/mL"}, {"measurement": "Levofloxacin MIC fold difference, +EPI", "setting": "[3]; AR-0248", "value": 8, "unit": "fold"}, {"measurement": "Levofloxacin MIC, +EPI", "setting": "[3]; AR-0248", "value": 2, "unit": "µg/mL"}, {"measurement": "Levofloxacin MIC fold difference, +EPI", "setting": "[3]; AR-0249", "value": 16, "unit": "fold"}, {"measurement": "Levofloxacin MIC, +EPI", "setting": "[3]; AR-0249", "value": 4, "unit": "µg/mL"}, {"measurement": "Levofloxacin MIC fold difference, +EPI", "setting": "[3]; AR-0252", "value": 8, "unit": "fold"}, {"measurement": "Levofloxacin MIC, +EPI", "setting": "[3]; AR-0252", "value": 4, "unit": "µg/mL"}, {"measurement": "Levofloxacin MIC fold difference, +EPI", "setting": "[3]; AR-0253", "value": 16, "unit": "fold"}, {"measurement": "Levofloxacin MIC, +EPI", "setting": "[3]; AR-0253", "value": 0.125, "unit": "µg/mL"}, {"measurement": "Levofloxacin MIC fold difference, +EPI", "setting": "[3]; AR-0264", "value": 16, "unit": "fold"}, {"measurement": "Levofloxacin MIC, +EPI", "setting": "[3]; AR-0264", "value": 4, "unit": "µg/mL"}, {"measurement": "Share of CDC isolates with levofloxacin MIC reduced ≥8-fold (potentiated)", "setting": "[3]; TXA11114 […], PAβN and MC-04,124 50 µg/mL", "value": "approximately 85%"}, {"measurement": "Share of isolates in which levofloxacin was potentiated", "setting": "[3]; [5]", "value": "> 90", "unit": "%"}, {"measurement": "Share of strains restored to levofloxacin susceptibility at or below EUCAST breakpoint (≤2 μg/mL)", "setting": "[3]; [5]", "value": "approximately 60%"}, {"measurement": "Reductions in levofloxacin MIC values in many strains", "setting": "[3]; diverse MDR clinical isolates", "value": "4- to 32 fold"}, {"measurement": "AUC(0-t)", "setting": "in vivo; BALF AUC 0-t", "value": 13.2, "unit": "µg·h/mL"}, {"measurement": "Tmax", "setting": "in vivo; BALF Tmax", "value": 4, "unit": "h"}, {"measurement": "AUC(0-t)", "setting": "in vivo; Plasma AUC 0-t", "value": 30.7, "unit": "µg·h/mL"}, {"measurement": "Cmax", "setting": "in vivo; Plasma Cmax", "value": 13, "unit": "µg/mL"}, {"measurement": "half-life", "setting": "in vivo; Plasma Half-life", "value": 1.84, "unit": "h"}, {"measurement": "Tmax", "setting": "in vivo; Plasma Tmax", "value": 0.083, "unit": "h"}, {"measurement": "Vd", "setting": "in vivo; Plasma Vd", "value": 2.5, "unit": "L/kg"}, {"measurement": "Aqueous solubility", "setting": "Aqueous solubility; pH 7.4", "value": "145.9 ± 6.1", "unit": "µM"}, {"measurement": "solubility at 6 h", "setting": "Aqueous solubility; system solution (SS), pH 7.4, aqueous buffer, kinetic from dmso stock", "value": "> 145", "unit": "µM"}]}
